Results reported in PubChem BioAssay AID504322 (Emory University Molecular Libraries Screening Center, 2011).
Calls of active or inactive are those of the source. No rule for the calls is given here.

These compounds were tested on CHOP reporter cell assay, percent of control (assay: CHOP reporter inhibitor potency, dose response, cell-based (AID 504322);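 also: CHO cells carrying a CHOP reporter stimulated with tunicamycin to induce ER stress; potency is for inhibition of the stress-induced reporter signal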).
With CC(C)C[C@H](NC(=O)c1[nH]cnc1C(=O)Nc1ccccc1)C(=O)OC(C)(C)C the IC50 was 5.95 µM (inactive). For COCCn1cnc2c(c1=O)c1nc3ccccc3nc1n2/N=C/c1cccc(OC)c1, the IC50 was 8.74 µM (inactive). O=[N+]([O-])c1ccc(/C=N/n2c(C3CCCCC3)n[nH]c2=S)cc1 was tested, and the IC50 was 9.52 µM (inactive). In the case of O=C(CNc1cccc(C(F)(F)F)c1)N/N=C/c1cccc(Br)c1, the IC50 is reported as > 10 µM (inactive). For CCCCC(CC)C(=O)Oc1ccc(O)c(C(C)(C)C)c1 (stereo not given), the IC50 was 2.37 µM (inactive). In the case of Cc1ccc(NC(=S)NC(NC(=O)Cc2cccc3ccccc23)C(Cl)(Cl)Cl)cc1 (stereo not given), the IC50 is reported as > 10 µM (inactive). COc1cc(/C=N/O)cc(Br)c1OCc1cccc(Cl)c1 was tested, and the IC50 was 6.16 µM (inactive). In the case of CC1CCCC(NCC(O)COC(c2ccc(F)cc2)c2ccc(F)cc2)C1C (stereo not given), the IC50 is reported as 9.43 µM (inactive). Cc1cc(Nc2ccc(Cl)cc2)nc(NCc2ccccc2)n1 was tested, and the IC50 was > 10 µM (inactive). For O=C(/C=C/c1cccc([N+](=O)[O-])c1)n1cnc2ccccc21, the IC50 was 5.36 µM (inactive). CC(C)(C)C(=O)NC(NC(=S)Nc1sc2c(c1C#N)CCCC2)C(Cl)(Cl)Cl (stereo not given) was tested, and the IC50 was > 10 µM (inactive). With C[C@H]1C[C@@H](C)C(=O)[C@@H]([C@H](O)CC2CC(=O)NC(=O)C2)C1 the IC50 was < 0.16 µM (inactive). O=C(/C=C/c1ccccc1)Nc1cccc(C(=O)O)c1 was tested, and the IC50 was 3.59 µM (inactive). In the case of CCOc1ccc(C(=O)C(CCC(CN(C)C)C(=O)c2ccc(OCC)cc2)CN(C)C)cc1 (stereo not given), the IC50 is reported as 9.69 µM (inactive). Cc1cccc(/C=N/Nc2ccc3ccccc3n2)c1 was tested, and the IC50 was > 10 µM (inactive). CCOC(=O)C(NC(=O)Nc1cccc(C)n1)(OCC(F)(F)F)C(F)(F)F (stereo not given) was tested, and the IC50 was > 10 µM (inactive). Nc1ccc2oc(-c3cc(Br)ccc3Cl)nc2c1 gave an IC50 of 0.71 µM. In the case of CC(/C=C1\SC(=O)N(CCCC(=O)O)C1=O)=C\c1ccccc1, the IC50 is reported as less than 0.16 µM. In the case of CCOC(=O)C1=C(C)NC(C)=C(C(=O)OCC)C1/C=C/c1ccccc1, the IC50 is reported as > 10 µM (inactive). For CC[n+]1c(/C=C2\Sc3ccccc3N2C)ccc2cccc(C)c21, the IC50 was > 10 µM (inactive). Work on COC(=O)CS(=O)(=O)c1nnc([C@H](Cc2ccccc2)NC(=O)OC(C)(C)C)o1 yielded an IC50 of 4.68 µM. In the case of O=C1c2ccccc2-c2onc3ccc(Oc4ccccc4)c1c23, the IC50 is reported as 9.64 µM (inactive). For Cc1cccc(Nc2nc(N)c([N+](=O)[O-])c(N3CC(C)CC(C)C3)n2)c1 (stereo not given), the IC50 was > 10 µM (inactive). For CC(C)(C)C(=O)c1no[n+]([O-])c1/C(=N/O)C(C)(C)C, the IC50 was 7.23 µM (inactive). Compound COC(=O)/C(=C1/Oc2cc(C)oc(=O)c2S1)C(F)(F)F has an IC50 of 4.93 µM. With CCCCc1nc(NCCN)c(C#N)c2c1CSC(C)(C)C2 the IC50 was 5.15 µM (inactive). COc1ccc(N2C(=O)CC(Sc3nnnn3-c3ccc(F)cc3)C2=O)cc1 (stereo not given) gave an IC50 of 0.24 µM. COc1ccc(C(=O)/C=C/C(=O)N(CC(=O)NC2CCCCC2)Cc2ccc(F)cc2)c(O)c1 gave an IC50 of 2.12 µM. In the case of Cn1c2ccccc2c(=O)c2c(=O)n(C3CCCCCC3)c(C3CCCCC3)nc21, the IC50 is reported as 9.65 µM (inactive). In the case of O=C(/C=C/c1cccc(C(F)(F)F)c1)Nc1cccc(C(F)(F)F)c1, the IC50 is reported as 2.49 µM (inactive). For Cc1ccc(-n2ncc(Br)c(Br)c2=O)cc1, the IC50 was 4.78 µM. In the case of CC1(c2ccc(OC(F)F)cc2)NC(=O)N(/N=C/c2c(O)ccc3ccccc23)C1=O (stereo not given), the IC50 is reported as 8.25 µM (inactive). With Cn1c(=O)[nH]c(=O)c2[nH]c(N(Cc3ccccc3)Cc3ccccc3)nc21 the IC50 was 6.18 µM (inactive). In the case of O=S(=O)(Nc1ccccc1)c1ccc(Oc2ncc(C(F)(F)F)cc2Cl)cc1, the IC50 is reported as > 10 µM (inactive). CCCOC(=O)c1ccc(Oc2cn[nH]c2-c2ccc(OCC)cc2O)cc1 was tested, and the IC50 was 9.56 µM (inactive). In the case of Nc1c(N(C(=O)Nc2ccc(Cl)c(Cl)c2)C2CCCC2)c(=O)[nH]c(=O)n1Cc1ccccc1, the IC50 is reported as > 10 µM (inactive). Fc1ccc(-c2nn(-c3ccccc3)cc2CNCc2ccccc2)cc1 was tested, and the IC50 was 9.62 µM (inactive). O=C(NC(Nc1nc2ccc([N+](=O)[O-])cc2s1)(C(F)(F)F)C(F)(F)F)c1ccccc1Cl was tested, and the IC50 was 0.87 µM. COc1ccc(-c2cnc(OC(C)(C)C)nc2OC(C)(C)C)cc1OC was tested, and the IC50 was 4.6 µM (inactive). For CCCCCCn1c(-c2ccco2)nc2oc3cc(OC)ccc3c(=O)c2c1=O, the IC50 was 9.42 µM (inactive). For CN1CCc2c(sc(NC(=O)c3cc4cc([N+](=O)[O-])ccc4s3)c2C(N)=O)C1, the IC50 was 4.6 µM. CN=C1SC(CC(=O)Nc2ccc(F)cc2F)C(=O)N1/N=C/c1ccc(OC(F)F)c(OC)c1 (stereo not given) was tested, and the IC50 was 9.78 µM (inactive). For COc1cc(N(C(=O)Cc2cccs2)C(C(=O)NC2CCCCC2)c2ccc(C)cc2)ccc1-n1cnnn1 (stereo not given), the IC50 was 9.94 µM (inactive). In the case of O=C(Nc1ccc([N+](=O)[O-])cc1)Nc1nc(-c2ccc(Cl)s2)cs1, the IC50 is reported as 2.28 µM. Cc1cc2c(cc1C)CSC(c1ccccc1O)SC2 was tested, and the IC50 was > 10 µM (inactive). CCc1ccc(C(=O)/C=C/c2ccc([N+](=O)[O-])o2)cc1 was tested, and the IC50 was 9.75 µM (inactive). For COc1cc([C@@H]2c3cc4c(cc3[C@@H](O)[C@@H](CO)[C@@H]2CO)OCO4)cc(OC)c1O[Si](C)(C)C(C)(C)C, the IC50 was 6.02 µM (inactive). For CN1CCN(CC(=O)N2CCn3c4c(c5cc(C6CCCCC6)ccc53)CCCC42)CC1 (stereo not given), the IC50 was 9.6 µM (inactive). O=C(O)c1cccc(COc2ccc(CO)cc2Cl)c1 was tested, and the IC50 was less than 0.16 µM. With COc1ccc(NC(=O)c2cc3cccc(OC)c3oc2=Nc2ccc(C(=O)O)cc2)cc1OC the IC50 was 5.28 µM (inactive). Compound Cc1nc(Nc2ccc(F)cc2)[nH]c(=O)c1CCC(C)C has an IC50 of 2.43 µM. With O=S(=O)(NC1CC1)c1ccc(S(=O)(=O)N2CCCC3(CCCCC3)C2)cc1 the IC50 was 6.79 µM (inactive). With O=C(Nc1ccc(S(=O)(=O)N2CCOCC2)cc1)c1ccc(CN2CCc3ccccc3C2)cc1 the IC50 was less than 0.16 µM. With COc1cc(OC)cc(-c2nc3ccccc3c(=O)n2OC(=O)c2ccc(Br)cc2)c1 the IC50 was > 10 µM (inactive). For O=C(NC(c1ccccc1)c1c(O)ccc2ccccc12)c1ccccc1Cl (stereo not given), the IC50 was > 10 µM (inactive). Compound Cc1ccc(NN2C(=O)C=C(c3ccc(Cl)cc3)C2=O)cc1 has an IC50 of 2.09 µM. CC(C)c1ccc(O)c(NC(=S)NC(=O)CCc2ccccc2)c1 was tested, and the IC50 was 2.97 µM (inactive). For O=C(Nc1ccc(-c2nc3ccccc3o2)cc1)c1ccc(N2CCOCC2)c([N+](=O)[O-])c1, the IC50 was 3.54 µM. Cc1nn(-c2ccccc2Cl)c(Cl)c1/C=N/Nc1nc2ccccc2s1 was tested, and the IC50 was less than 0.16 µM. CC(C)(C)c1ccc(OCCNC(=S)Nc2ccccc2)cc1 was tested, and the IC50 was > 10 µM (inactive). C=CCOC(=O)C1=C(C)NC(SCC(=O)Nc2nccs2)=C(C#N)C1c1ccc(Cl)cc1 (stereo not given) was tested, and the IC50 was 9.67 µM (inactive). With CC1=CC(C)(C)N2C(=O)C3(SCC(=O)N3c3ccc(F)cc3)c3cc(C)cc1c32 (stereo not given) the IC50 was > 10 µM (inactive). In the case of CCCCCCOC(=O)c1ccccc1N, the IC50 is reported as 6.31 µM (inactive). CC(C)C(=O)N1CCC(CN=Cc2c(O)n(C3CCCCC3)c(=O)n(C3CCCCC3)c2=O)CC1 was tested, and the IC50 was 9.9 µM (inactive). CCCCCCCC(=O)N/N=C/c1ccc(Br)cc1 gave an IC50 of 3.51 µM. Cc1ccc(C)c(NC(=S)NC(NC(=O)/C=C/c2ccccc2)C(Cl)(Cl)Cl)c1 (stereo not given) was tested, and the IC50 was 9.63 µM (inactive). In the case of O=C1NCN(c2ccccc2)C12CCN(CCCC(c1ccc(F)cc1)c1ccc(F)cc1)CC2, the IC50 is reported as 7.76 µM (inactive). CNc1nc(Sc2cccc(C(F)(F)F)c2)cc(C(F)(F)F)n1 was tested, and the IC50 was > 10 µM (inactive). OC(CNCCc1ccc(C(F)(F)F)cc1)COc1ccc2ccccc2c1 (stereo not given) was tested, and the IC50 was 9.41 µM (inactive). For Cc1cc(/C=N/n2cnnc2)c(C)n1-c1ccc(OCc2ccc(Cl)cc2Cl)cc1, the IC50 was < 0.16 µM (inactive). For O=C1CC(c2cccc(Cl)c2)CC(O)=C1C=Nc1cccc(Cl)c1 (stereo not given), the IC50 was 9.72 µM (inactive). With COc1ccccc1-c1cc(C(F)(F)F)nc(S(=O)(=O)CCCC(=O)NC(C)C)n1 the IC50 was 9.35 µM (inactive). With CCCCn1c(=O)c(C(=O)Nc2cnccn2)c(O)c2ccccc21 the IC50 was 7.31 µM (inactive). Cc1ccc(NC(=O)O/N=C/c2c(C)nn(C(C)(C)C)c2C)cc1Cl gave an IC50 of less than 0.16 µM. In the case of CCCc1cc(=O)[nH]c(Nc2ccc(N3CCCCC3)cc2)n1, the IC50 is reported as 7.76 µM (inactive). With CCOC(=O)c1c2ccc(OCC(=O)N/N=C/c3ccc(C)cc3)cc2n2ccccc12 the IC50 was 9.52 µM (inactive). O=C(OCn1ncc(Cl)c(Cl)c1=O)c1cccc(C(F)(F)F)c1 showed an IC50 of 4.44 µM. O=S(=O)(N/N=C/c1ccc(Cl)cc1)c1ccc(Cc2ncc(C(F)(F)F)cc2Cl)s1 was tested, and the IC50 was 6.37 µM (inactive). For CCCOc1ccc(N2C(=O)CC(SC(=NC)Nc3ccc(F)cc3)C2=O)cc1 (stereo not given), the IC50 was > 10 µM (inactive). For CCOC(=O)c1[nH]c2ccc(Cl)cc2c1-c1ccccc1, the IC50 was 9.7 µM (inactive). For CCN1/C(=C\C=C\C2=[N+](CC)c3ccccc3C2(C)C)C(C)(C)c2ccccc21, the IC50 was 0.32 µM (inactive). With O=C(c1ccc(COc2ccc(Cl)cc2)o1)N1N=C(C(F)F)CC1(O)C(F)F (stereo not given) the IC50 was 9.64 µM (inactive). With CCCc1cc(-c2nc(N)ncc2-c2ccc3c(c2)OCCCO3)c(O)cc1OC the IC50 was 8.02 µM (inactive). With CC1(C)CC(C(CCN(Cc2ccccc2)C(=O)c2ccco2)c2ccc(F)cc2)CCO1 (stereo not given) the IC50 was 9.7 µM (inactive). In the case of N#CC1=C(N)N2C(=C(C#N)C1c1cccc(Br)c1)Nc1ccccc12 (stereo not given), the IC50 is reported as 5.07 µM (inactive). In the case of CC1=CC(C)(C)N(C(=O)c2ccc(F)cc2)c2cc3c(cc21)OCO3, the IC50 is reported as 5.31 µM (inactive). In the case of C=CCn1c(COc2ccccc2)nnc1SC(C)C(=O)N/N=C/c1cc(Cl)ccc1O (stereo not given), the IC50 is reported as 9.66 µM (inactive). For COC(=O)/C(=C(/F)Sc1cc(C)c(O)c(C)c1)C(F)(F)F, the IC50 was 9.36 µM (inactive). With CCCCn1c(NS(=O)(=O)c2ccc(C)cc2)c(S(=O)(=O)c2ccccc2)c2nc3ccccc3nc21 the IC50 was > 10 µM (inactive). With CCOC(=O)Cc1csc(NC(=O)NC2(C(F)(F)F)Oc3cc(Cl)c(Cl)cc3O2)n1 the IC50 was 4.04 µM. For Cc1ccc(C(C(=O)NCc2ccco2)N(C(=O)CNC(=O)c2cccs2)c2c(C)cccc2C)cc1 (stereo not given), the IC50 was > 10 µM (inactive). With CC(C)(C)c1ccc(OCC(=O)N/N=C/C2CC=CCC2)cc1 (stereo not given) the IC50 was 7.48 µM (inactive). With Cc1ccc(/C=N/NC(=O)CCCOc2ccc(Cl)cc2Cl)cc1 the IC50 was 7.92 µM (inactive). In the case of Cn1c(=O)cc(SCC(=O)NCCC2=CCCCC2)c2ccc(Cl)cc21, the IC50 is reported as 5.34 µM (inactive). For C=CCn1c(SCC(=O)Nc2ccc(-c3nc4ccc(C)cc4s3)cc2)nnc1-c1ccccc1, the IC50 was 9.89 µM (inactive).
